# Data taken from US20080051387A1, “TETRAHYDROPYRIDO[3,4-D]PYRIMIDINES AND RELATED ANALOGUES” (priority 2006, published 2008).
# Molecular target: T1, chimeric human H3 receptor (Homo sapiens, UniProt Q9Y5N1)
# T1 construct: rat Galpha-i2 (Gnai2, rat); made in house; host or cells: Sf9 insect cells (baculovirus); P2 membranes
# Assay: Chimeric human H3 receptor screening GTP binding assay (inhibition of histamine-stimulated GTP-gamma35S binding, Example 8)
# Assay type: biochemical
# Conditions: 1 h; assay described in Example 8; symbol "!" in column headed Ki; read-out: Ki ("!": percent inhibition of agonist-induced GTP-gammaS binding to H3)
# Method in brief: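 Sf9 membranes co-expressing chimeric human H3 receptor and heterotrimeric G-protein (35 μg protein) incubated 60 min at room temperature with 4 μM compound, 1 μM histamine and 125 pM GTP-gamma35S in pH 7.4 buffer with 10 μM GDP. Filter-bound radioactivity, nonspecific (10 μM GTP-gammaS) subtracted, reported as % inhibition of histamine signal.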
# T1 sequence (Q9Y5N1 with tags, fused parts or gaps): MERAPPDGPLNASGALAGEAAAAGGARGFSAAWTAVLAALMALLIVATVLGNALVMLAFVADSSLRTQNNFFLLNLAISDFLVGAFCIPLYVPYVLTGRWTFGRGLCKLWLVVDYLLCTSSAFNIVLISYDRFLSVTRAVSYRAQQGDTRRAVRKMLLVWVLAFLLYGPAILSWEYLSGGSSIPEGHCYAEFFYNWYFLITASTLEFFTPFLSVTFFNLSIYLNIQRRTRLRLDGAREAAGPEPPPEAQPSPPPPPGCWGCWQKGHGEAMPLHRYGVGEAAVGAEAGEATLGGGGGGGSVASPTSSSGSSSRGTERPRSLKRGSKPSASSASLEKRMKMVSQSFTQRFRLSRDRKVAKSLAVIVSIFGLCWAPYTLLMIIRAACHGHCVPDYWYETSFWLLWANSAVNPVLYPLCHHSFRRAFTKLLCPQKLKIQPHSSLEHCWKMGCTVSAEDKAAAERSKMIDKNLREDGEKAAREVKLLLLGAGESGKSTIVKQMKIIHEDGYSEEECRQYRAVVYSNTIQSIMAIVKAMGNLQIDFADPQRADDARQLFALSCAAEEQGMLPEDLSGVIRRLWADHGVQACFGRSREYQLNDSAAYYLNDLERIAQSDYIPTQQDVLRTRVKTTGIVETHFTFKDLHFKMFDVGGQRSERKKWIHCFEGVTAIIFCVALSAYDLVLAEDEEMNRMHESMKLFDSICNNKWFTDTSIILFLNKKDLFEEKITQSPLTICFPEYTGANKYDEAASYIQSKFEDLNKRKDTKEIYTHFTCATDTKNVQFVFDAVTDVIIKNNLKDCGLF
row,Structure (SMILES),inhibition at 4 µM
1,"O=C(c1cccnc1Sc1ccccc1)N1CCc2cnc(N3CCN(C4CCC4)CC3)nc2CC1 [Compound 496, 2-(4-cyclobutylpiperazin-1-yl)-7-{[2-(phenylthio)pyridin-3-yl]carbonyl}-6,7,8,9-tetrahydro-5H-pyrimido[4,5-d]azepine]",≥ 90%
2,"O=C(/C=C/c1cccc(F)c1F)N1CCc2cnc(N3CCN(C4CCC4)CC3)nc2CC1 [Compound 554, 2-(4-cyclobutylpiperazin-1-yl)-7-[(2E)-3-(2,3-difluorophenyl)prop-2-enoyl]-6,7,8,9-tetrahydro-5H-pyrimido[4,5-d]azepine]",≥ 90%

# The next lines start with the values.
row,inhibition at 4 µM,Structure (SMILES)
1,≥ 90%,"Nc1ccc(Cl)cc1C(=O)N1CCc2cnc(N3CCN(C4CCC4)CC3)nc2CC1 [Compound 536, 4-chloro-2-{[2-(4-cyclobutylpiperazin-1-yl)-5,6,8,9-tetrahydro-7H-pyrimido[4,5-d]azepin-7-yl]carbonyl}aniline]"
2,≥ 90%,"O=C(c1cnc2ccccc2c1)N1CCc2cnc(N3CCN(C4CCC4)CC3)nc2CC1 [Compound 482, 2-(4-cyclobutylpiperazin-1-yl)-7-(quinolin-3-ylcarbonyl)-6,7,8,9-tetrahydro-5H-pyrimido[4,5-d]azepine]"
3,≥ 90%,"O=C(c1sccc1Cl)N1CCc2cnc(N3CCN(C4CCC4)CC3)nc2CC1 [Compound 446, 7-[(3-chloro-2-thienyl)carbonyl]-2-(4-cyclobutylpiperazin-1-yl)-6,7,8,9-tetrahydro-5H-pyrimido[4,5-d]azepine]"
4,≥ 90%,"O=C(c1ccc(Cl)cc1Cl)N1CCc2cnc(N3CCN(C4CCC4)CC3)nc2CC1 [Compound 442, 2-(4-cyclobutylpiperazin-1-yl)-7-(2,4-dichlorobenzoyl)-6,7,8,9-tetrahydro-5H-pyrimido[4,5-d]azepine]"
5,≥ 90%,"CSc1ncc(Cl)c(C(=O)N2CCc3cnc(N4CCN(C5CCC5)CC4)nc3CC2)n1 [Compound 479, 7-{[5-chloro-2-(methylthio)pyrimidin-4-yl]carbonyl}-2-(4-cyclobutylpiperazin-1-yl)-6,7,8,9-tetrahydro-5H-pyrimido[4,5-d]azepine]"
6,≥ 90%,"COc1cc(Br)c(C(=O)N2CCc3cnc(N4CCN(C5CCC5)CC4)nc3CC2)cc1OC [Compound 429, 7-(2-bromo-4,5-dimethoxybenzoyl)-2-(4-cyclobutylpiperazin-1-yl)-6,7,8,9-tetrahydro-5H-pyrimido[4,5-d]azepine]"
7,≥ 90%,"Cc1ccsc1C(=O)N1CCc2cnc(N3CCN(C4CCC4)CC3)nc2CC1 [Compound 444, 2-(4-cyclobutylpiperazin-1-yl)-7-[(3-methyl-2-thienyl)carbonyl]-6,7,8,9-tetrahydro-5H-pyrimido[4,5-d]azepine]"

# Same assay, conditions: 1 h; assay of Example 8; symbol "!" in column headed Ki; read-out: percent inhibition of agonist-induced GTP-gammaS binding to H3
row,Structure (SMILES),inhibition at 4 µM
1,"O=C(/C=C/c1ccccc1Br)N1CCc2cnc(N3CCN(C4CCC4)CC3)nc2CC1 [Compound 582, 7-[(2E)-3-(2-bromophenyl)prop-2-enoyl]-2-(4-cyclobutylpiperazin-1-yl)-6,7,8,9-tetrahydro-5H-pyrimido[4,5-d]azepine]",≥ 90%
2,"COc1ccccc1CC(=O)N1CCc2cnc(N3CCN(C4CCC4)CC3)nc2CC1 [Compound 306, 2-(4-cyclobutylpiperazin-1-yl)-7-[(2-methoxyphenyl)acetyl]-6,7,8,9-tetrahydro-5H-pyrimido[4,5-d]azepine]",≥ 90%
3,"O=C(C(c1ccccc1)C1CCCCC1)N1CCc2cnc(N3CCN(C4CCC4)CC3)nc2CC1 (stereo not drawn) [Compound 355, 2-(4-cyclobutylpiperazin-1-yl)-7-[cyclohexyl(phenyl)acetyl]-6,7,8,9-tetrahydro-5H-pyrimido[4,5-d]azepine]",≥ 90%
4,"COc1cccc(CC(=O)N2CCc3cnc(N4CCN(C5CCC5)CC4)nc3CC2)c1OC [Compound 312, 2-(4-cyclobutylpiperazin-1-yl)-7-[(2,3-dimethoxyphenyl)acetyl]-6,7,8,9-tetrahydro-5H-pyrimido[4,5-d]azepine]",≥ 90%
5,"Cc1cccc(OC(C)C(=O)N2CCc3cnc(N4CCN(C5CCC5)CC4)nc3CC2)c1C (stereo not drawn) [Compound 347, 2-(4-cyclobutylpiperazin-1-yl)-7-[2-(2,3-dimethylphenoxy)propanoyl]-6,7,8,9-tetrahydro-5H-pyrimido[4,5-d]azepine]",≥ 90%
6,"COCCOCC(=O)N1CCc2cnc(N3CCN(C4CCC4)CC3)nc2CC1 [Compound 228, 2-(4-cyclobutylpiperazin-1-yl)-7-[(2-methoxyethoxy)acetyl]-6,7,8,9-tetrahydro-5H-pyrimido[4,5-d]azepine]",≥ 90%
7,"c1ccc2nc(CN3CCc4cnc(N5CCN(C6CCC6)CC5)nc4CC3)ccc2c1 [Compound 259, 2-(4-cyclobutylpiperazin-1-yl)-7-(quinolin-2-ylmethyl)-6,7,8,9-tetrahydro-5H-pyrimido[4,5-d]azepine]",≥ 90%

# The next lines start with the values.
row,inhibition at 4 µM,Structure (SMILES)
1,≥ 90%,"Cc1cccc(C(=O)N2CCc3cnc(N4CCN(C5CCC5)CC4)nc3CC2)c1 [Compound 187, 2-(4-cyclobutylpiperazin-1-yl)-7-(3-methylbenzoyl)-6,7,8,9-tetrahydro-5H-pyrimido[4,5-d]azepine]"
2,≥ 90%,"O=C(Cc1ccc(Cl)c(Cl)c1)N1CCc2cnc(N3CCN(C4CCC4)CC3)nc2CC1 [Compound 293, 2-(4-cyclobutylpiperazin-1-yl)-7-[(3,4-dichlorophenyl)acetyl]-6,7,8,9-tetrahydro-5H-pyrimido[4,5-d]azepine]"
3,≥ 90%,"CCCOc1ccc(C(=O)N2CCc3cnc(N4CCN(C5CCC5)CC4)nc3CC2)cc1 [Compound 379, 2-(4-cyclobutylpiperazin-1-yl)-7-(4-propoxybenzoyl)-6,7,8,9-tetrahydro-5H-pyrimido[4,5-d]azepine]"
4,≥ 90%,"Cc1cc(Cl)ccc1OCC(=O)N1CCc2cnc(N3CCN(C4CCC4)CC3)nc2CC1 [Compound 328, 7-[(4-chloro-2-methylphenoxy)acetyl]-2-(4-cyclobutylpiperazin-1-yl)-6,7,8,9-tetrahydro-5H-pyrimido[4,5-d]azepine]"
5,≥ 90%,"CC(C)CCC(=O)N1CCc2cnc(N3CCN(C4CCC4)CC3)nc2CC1 [Compound 209, 2-(4-cyclobutylpiperazin-1-yl)-7-(4-methylpentanoyl)-6,7,8,9-tetrahydro-5H-pyrimido[4,5-d]azepine]"

# Same assay, conditions: symbol ! in Ki; test compound 4 μM, 1 μM histamine; read-out: percent inhibition of agonist-induced GTP-gammaS binding to H3
row,inhibition at 4 µM,Structure (SMILES)
1,≥ 90%,"Cc1cccc(CN2CCc3nc(N4CCN(C5CCC5)CC4)ncc3C2)c1 [Compound 614, 2-(4-cyclobutylpiperazin-1-yl)-6-(3-methylbenzyl)-5,6,7,8-tetrahydropyrido[4,3-d]pyrimidine]"
2,≥ 90%,"Cc1cc(CN2CCc3ncnc(N4CCN(C5CCC5)CC4)c3CC2)n(C)n1 [Compound 156, 4-(4-cyclobutylpiperazin-1-yl)-7-[(1,3-dimethyl-1H-pyrazol-5-yl)methyl]-6,7,8,9-tetrahydro-5H-pyrimido[4,5-d]azepine]"
3,≥ 90%,"Fc1ccc(CN2CCc3ncnc(N4CCN(C5CCC5)CC4)c3CC2)cc1 [Compound 147, 4-(4-cyclobutylpiperazin-1-yl)-7-(4-fluorobenzyl)-6,7,8,9-tetrahydro-5H-pyrimido[4,5-d]azepine]"
4,≥ 90%,"c1nc2c(c(N3CCN(C4CCC4)CC3)n1)CCN(Cc1ccc(N3CCCC3)nc1)CC2 [Compound 178, 4-(4-cyclobutylpiperazin-1-yl)-7-[(6-pyrrolidin-1-ylpyridin-3-yl)methyl]-6,7,8,9-tetrahydro-5H-pyrimido[4,5-d]azepine]"
5,≥ 90%,"CNC(=O)c1ccc(CN2CCc3c(ncnc3N3CCN(C4CCC4)CC3)C2)cc1 [Compound 140, 4-{[4-(4-cyclobutylpiperazin-1-yl)-5,8-dihydropyrido[3,4-d]pyrimidin-7(6H)-yl]methyl}-N-methylbenzamide]"
6,≥ 90%,"CCC(=O)N1CCc2c(ncnc2N2CCN(C3CCC3)CC2)C1 [Compound 42, 4-(4-cyclobutylpiperazin-1-yl)-7-propionyl-5,6,7,8-tetrahydropyrido[3,4-d]pyrimidine]"
7,≥ 90%,"Cc1ccc(CN2CCc3c(ncnc3N3CCN(C4CCC4)CC3)C2)cc1C [Compound 91, 4-(4-cyclobutylpiperazin-1-yl)-7-(3,4-dimethylbenzyl)-5,6,7,8-tetrahydropyrido[3,4-d]pyrimidine]"
8,≥ 90%,"Cc1ccc(C(C)N2CCc3c(ncnc3N3CCN(C4CCC4)CC3)C2)cc1C (stereo not drawn) [Compound 128, 4-(4-cyclobutylpiperazin-1-yl)-7-[1-(3,4-dimethylphenyl)ethyl]-5,6,7,8-tetrahydropyrido[3,4-d]pyrimidine]"
9,≥ 90%,"CC(c1ccc(Cl)cc1Cl)N1CCc2c(ncnc2N2CCN(C3CCC3)CC2)C1 (stereo not drawn) [Compound 136, 4-(4-cyclobutylpiperazin-1-yl)-7-[1-(2,4-dichlorophenyl)ethyl]-5,6,7,8-tetrahydropyrido[3,4-d]pyrimidine]"
10,≥ 90%,"c1ccc2c(CN3CCc4ncnc(N5CCN(C6CCC6)CC5)c4CC3)ccnc2c1 [Compound 151, 4-(4-cyclobutylpiperazin-1-yl)-7-(quinolin-4-ylmethyl)-6,7,8,9-tetrahydro-5H-pyrimido[4,5-d]azepine]"
11,≥ 90%,"c1nc2c(c(N3CCN(C4CCC4)CC3)n1)CCN(Cc1ccc(N3CCCC3)cc1)C2 [Compound 100, 4-(4-cyclobutylpiperazin-1-yl)-7-(4-pyrrolidin-1-ylbenzyl)-5,6,7,8-tetrahydropyrido[3,4-d]pyrimidine]"
12,≥ 90%,"CC(C1CCCCC1)N1CCc2c(ncnc2N2CCN(C3CCC3)CC2)C1 (stereo not drawn) [Compound 126, 4-(4-cyclobutylpiperazin-1-yl)-7-(1-cyclohexylethyl)-5,6,7,8-tetrahydropyrido[3,4-d]pyrimidine]"
